Assay results from patent publication US12624044B2, “SMARCA degraders and uses thereof” (Kymera Therapeutics, Inc., priority 2019, dated 2026).

Target: SMARCA2 (Homo sapiens, UniProt P51531)
Assay: MSD SMARCA2 degradation in NCI-H1299 cell line (24 h)
Assay type: cell-based
Set-up: HC: NCI-H1299 cells treated with DMSO; host or cells: NCI-H1299
Details: for DC50: NCI-H1299 cells, read-out: SMARCA2 MSD H1299 degradation 24 h: External Abs-DC50; for Dmax: NCI-H1299, NCI-H1299 cells
Description: Example 32. MSD SMARCA2 Degradation in […] Cell Line
Cell Culture: Cells were cultured in exponential growth phase.
Compound Preparation and Treatment: NCI-H1299 cells were seeded into the 96-well plate at 4.0*10^4 cells per 100 ul per well. Incubate the plate in the incubator overnight. The next day, compounds were diluted to designed stock concentration by TECAN, then perform a 3 fold, 9-point dilution via transferring 15 uL compound into 30 μL DMSO using Apricot. 200 nL diluted compound from compound source plate were transferred into the 96-intermediate plate as designated by using Echo550, followed with 100 ul culture medium to make the 2× compound solution. Cell plate were changed with 80 ul of fresh culture medium and 80 ul of 2× compound solution was added into the well to achieve the final designed concentration. Cell plate was then shaken at 720 rpm for 5 min and incubated for 24 hours in the incubator.
Sample Preparation: Media was aspirated from the cultures and the plate was washed with PBS twice. 60 ul of pre-chilled PIPA lysis buffer (Boston BioProducts BP-115D) with protease inhibitor were directly added into the well to lyze the cells for 20 minutes at 4° C. Cell lysates were collected.
MSD Procedure: The MSD plate was coated with 40 ul cell lysate and incubated at 4° C. overnight. The next day, the MSD coated bare plate was washed 3 times with 150 ul 1×TBST per well, blocked with 150 ul of blocking buffer per well, and shaken for 1 hour at RT, 600 rpm. Blocking buffer was 3% Blocker A in TBST. MSD plate was then washed 3 times with 150 ul 1×TBST per well and Primary Detection antibody (Rabbit anti-SMARCA2/BRM antibody, 100 μg/ml, ab223735) was added to a final [conc.]: 0.3 ug/ml, 25 ul/well and shaken for 1 hour at RT, 600 rpm. Antibody was prepared in Antibody Detection buffer (1% Blocker A in 1×TBST). The MSD plate was then washed 3 times with 150 ul 1×TBST per well. Secondary Detection antibody (SULFO-TAG anti-species antibody) was then added to a final [conc.]: 1 ug/ml, 25 ul/well, and shaken for 1 hour at RT, 600 rpm. Antibodies were prepared in Antibody Detection buffer (1% Blocker A in 1×TBST). MSD plate was washed 3 times with 150 ul 1×TBST per well and 2×MSD reading buffer was added, 150 ul per well, and diluted from 4× with water. MSD instrument was then read.
Data Analysis: The percentage of relative level of SMARCA2 level was calculated following equation below.
LC: A2780, SMARCA2 negative cells. HC: NCI-H1299 cells treated with DMSO.
The letter codes for the percentage of SMARCA2 degradation after 24 hours (Dmax %) include: A (>90% degradation), B (>70-90 degradation), C (50-70 degradation), and D (<50% degradation).

SMARCA2, sequence (P51531 whole entry): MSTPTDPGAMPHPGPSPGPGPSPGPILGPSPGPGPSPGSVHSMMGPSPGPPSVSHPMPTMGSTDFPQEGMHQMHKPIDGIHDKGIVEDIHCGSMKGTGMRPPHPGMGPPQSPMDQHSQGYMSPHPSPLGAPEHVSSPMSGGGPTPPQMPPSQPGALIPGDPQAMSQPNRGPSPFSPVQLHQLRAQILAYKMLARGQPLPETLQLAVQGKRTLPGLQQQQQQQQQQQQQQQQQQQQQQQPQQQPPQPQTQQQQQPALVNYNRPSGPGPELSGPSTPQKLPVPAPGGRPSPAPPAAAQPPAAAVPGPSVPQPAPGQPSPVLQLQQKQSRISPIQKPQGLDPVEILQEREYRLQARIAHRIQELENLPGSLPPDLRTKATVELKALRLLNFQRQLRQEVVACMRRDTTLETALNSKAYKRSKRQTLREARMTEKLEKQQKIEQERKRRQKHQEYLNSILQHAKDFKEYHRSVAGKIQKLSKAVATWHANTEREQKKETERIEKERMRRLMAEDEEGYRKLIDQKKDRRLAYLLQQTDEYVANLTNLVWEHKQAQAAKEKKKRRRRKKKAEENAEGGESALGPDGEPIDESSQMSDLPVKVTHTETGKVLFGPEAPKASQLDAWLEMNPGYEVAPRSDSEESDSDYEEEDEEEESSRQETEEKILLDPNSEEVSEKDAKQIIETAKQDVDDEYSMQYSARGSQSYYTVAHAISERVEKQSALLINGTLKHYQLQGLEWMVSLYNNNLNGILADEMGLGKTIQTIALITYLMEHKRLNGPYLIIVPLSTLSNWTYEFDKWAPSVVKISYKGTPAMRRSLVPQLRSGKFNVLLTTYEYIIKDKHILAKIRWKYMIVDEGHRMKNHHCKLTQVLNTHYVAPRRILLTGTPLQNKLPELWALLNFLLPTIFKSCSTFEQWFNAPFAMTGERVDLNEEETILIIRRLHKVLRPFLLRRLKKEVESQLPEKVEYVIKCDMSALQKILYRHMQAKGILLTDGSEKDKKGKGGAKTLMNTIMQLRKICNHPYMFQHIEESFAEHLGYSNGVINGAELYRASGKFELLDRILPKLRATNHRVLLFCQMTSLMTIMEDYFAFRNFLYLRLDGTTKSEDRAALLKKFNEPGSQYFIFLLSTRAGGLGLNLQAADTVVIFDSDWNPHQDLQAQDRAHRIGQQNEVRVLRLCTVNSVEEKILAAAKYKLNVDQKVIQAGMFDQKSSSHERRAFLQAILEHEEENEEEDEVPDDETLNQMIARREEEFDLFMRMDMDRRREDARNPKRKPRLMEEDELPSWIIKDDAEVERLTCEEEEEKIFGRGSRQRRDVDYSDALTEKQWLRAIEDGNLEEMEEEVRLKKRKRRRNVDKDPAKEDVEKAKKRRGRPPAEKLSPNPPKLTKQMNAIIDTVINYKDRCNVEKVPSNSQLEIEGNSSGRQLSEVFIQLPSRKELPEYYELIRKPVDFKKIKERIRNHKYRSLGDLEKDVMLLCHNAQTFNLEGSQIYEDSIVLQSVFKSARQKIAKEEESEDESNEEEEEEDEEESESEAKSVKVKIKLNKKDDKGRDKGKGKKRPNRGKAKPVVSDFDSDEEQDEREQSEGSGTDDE

SMILES	DC50 [nM]	Dmax [%]
Cn1c(=O)n(C2CCC(=O)NC2=O)c2ccc(CCCOCCOCCOCCOCCNC(=O)CCCCCCCCOc3ccnc(N4C[C@H]5C[C@@H]4CN5/C=C/C(=O)c4ccccc4O)c3)cc21 (stereo partly drawn) [I-21]	> 1000	–
Cn1c(=O)n(C2CCC(=O)NC2=O)c2ccc(CCCOCCOCCOCCOCCOCCNC(=O)CCCCCCCCOc3ccnc(N4C[C@H]5C[C@@H]4CN5/C=C/C(=O)c4ccccc4O)c3)cc21 (stereo partly drawn) [I-22]	> 1000	–
O=C(CCCCCCCCOc1ccnc(N2C[C@H]3C[C@@H]2CN3/C=C/C(=O)c2ccccc2O)c1)NCCOCCOCCNc1cccc2c1C(=O)N(C1CCC(=O)NC1=O)C2=O (stereo partly drawn) [I-23]	> 1000	–
Cn1c(=O)n(C2CCC(=O)NC2=O)c2ccc(CCCOCCOCCNC(=O)CCCCCCCCOc3ccnc(N4C[C@H]5C[C@@H]4CN5/C=C/C(=O)c4ccccc4O)c3)cc21 (stereo partly drawn) [I-24]	> 1000	–
Cn1c(=O)n(C2CCC(=O)NC2=O)c2ccc(CCCOCCOCCNC(=O)CCCOc3cccc(N4C[C@H]5C[C@@H]4CN5/C=C/C(=O)c4ccccc4O)n3)cc21 (stereo partly drawn) [I-25]	> 1000	–
Cn1c(=O)n(C2CCC(=O)NC2=O)c2ccc(CCCOCCOCCOCCNC(=O)CCCOc3cccc(N4C[C@H]5C[C@@H]4CN5/C=C/C(=O)c4ccccc4O)n3)cc21 (stereo partly drawn) [I-26]	> 1000	–
Cn1c(=O)n(C2CCC(=O)NC2=O)c2ccc(CNCc3cn(Cc4cccc(N5C[C@H]6C[C@@H]5CN6/C=C/C(=O)c5ccccc5O)n4)nn3)cc21 (stereo partly drawn) [I-27]	> 1000	–
Cn1c(=O)n(C2CCC(=O)NC2=O)c2cccc(CCCNCc3cn(Cc4cccc(N5C[C@H]6C[C@@H]5CN6/C=C/C(=O)c5ccccc5O)n4)nn3)c21 (stereo partly drawn) [I-28]	> 1000	< 50
Cn1c(=O)n(C2CCC(=O)NC2=O)c2ccc(CCCNCc3cn(Cc4cccc(N5C[C@H]6C[C@@H]5CN6/C=C/C(=O)c5ccccc5O)n4)nn3)cc21 (stereo partly drawn) [I-29]	> 1000	–
Cn1c(=O)n(C2CCC(=O)NC2=O)c2cccc(CCCOCCOc3cccc(N4C[C@H]5C[C@@H]4CN5/C=C/C(=O)c4ccccc4O)n3)c21 (stereo partly drawn) [I-30]	> 1000	–
Cn1c(=O)n(C2CCC(=O)NC2=O)c2ccc(CCCOCCOc3cccc(N4C[C@H]5C[C@@H]4CN5/C=C/C(=O)c4ccccc4O)n3)cc21 (stereo partly drawn) [I-31, 3-[5-[3-[2-[[6-[(1R,4R)-5-[(E)-3-(2-hydroxyphenyl)-3-oxo-prop-1-enyl]-2,5-diazabicyclo[2.2.1]heptan-2-yl]-2-pyridyl]oxy]ethoxy]propyl]-3-methyl-2-oxo-benzimidazol-1-yl]piperidine-2,6-dione]	> 1000	–
Cn1c(=O)n(C2CCC(=O)NC2=O)c2cccc(CCCOCCOCCOc3cccc(N4C[C@H]5C[C@@H]4CN5/C=C/C(=O)c4ccccc4O)n3)c21 (stereo partly drawn) [I-32]	> 1000	–
Cn1c(=O)n(C2CCC(=O)NC2=O)c2ccc(CCCOCCOCCOc3cccc(N4C[C@H]5C[C@@H]4CN5/C=C/C(=O)c4ccccc4O)n3)cc21 (stereo partly drawn) [I-33]	> 1000	–
O=C1CCC(N2C(=O)c3cccc(OCc4cn(Cc5cccc(N6C[C@H]7C[C@@H]6CN7/C=C/C(=O)c6ccccc6O)n5)nn4)c3C2=O)C(=O)N1 (stereo partly drawn) [I-34]	> 1000	–
O=C1CCC(N2C(=O)c3cccc(OCCc4cn(Cc5cccc(N6C[C@H]7C[C@@H]6CN7/C=C/C(=O)c6ccccc6O)n5)nn4)c3C2=O)C(=O)N1 (stereo partly drawn) [I-35]	> 1000	–
O=C1CCC(N2C(=O)c3cccc(OCCCc4cn(Cc5cccc(N6C[C@H]7C[C@@H]6CN7/C=C/C(=O)c6ccccc6O)n5)nn4)c3C2=O)C(=O)N1 (stereo partly drawn) [I-36, 2-(2,6-dioxo-3-piperidyl)-4-[3-[1-[[6-[(1R,4R)-5-[(E)-3-(2-hydroxyphenyl)-3-oxo-prop-1-enyl]-2,5-diazabicyclo[2.2.1]heptan-2-yl]-2-pyridyl]methyl]triazol-4-yl]propoxy]isoindoline-1,3-dione]	> 1000	–
O=C1CCC(N2C(=O)c3cccc(OCCCCc4cn(Cc5cccc(N6C[C@H]7C[C@@H]6CN7/C=C/C(=O)c6ccccc6O)n5)nn4)c3C2=O)C(=O)N1 (stereo partly drawn) [I-37]	501 to 1000	> 90

SMILES	DC50 [nM]	Dmax [%]
O=C1CCC(N2C(=O)c3cccc(NCCOCc4cn(Cc5cccc(N6C[C@H]7C[C@@H]6CN7/C=C/C(=O)c6ccccc6O)n5)nn4)c3C2=O)C(=O)N1 (stereo partly drawn) [I-38]	> 1000	–
O=C1CCC(N2C(=O)c3cccc(OCCOCCc4cn(Cc5cccc(N6C[C@H]7C[C@@H]6CN7/C=C/C(=O)c6ccccc6O)n5)nn4)c3C2=O)C(=O)N1 (stereo partly drawn) [I-39]	> 1000	–
O=C1CCC(N2C(=O)c3cccc(OCCOCCCc4cn(Cc5cccc(N6C[C@H]7C[C@@H]6CN7/C=C/C(=O)c6ccccc6O)n5)nn4)c3C2=O)C(=O)N1 (stereo partly drawn) [I-40]	> 1000	–
CN1C(=O)CCC(N2C(=O)c3cccc(OCCCCc4cn(Cc5cccc(N6C[C@H]7C[C@@H]6CN7/C=C/C(=O)c6ccccc6O)n5)nn4)c3C2=O)C1=O (stereo partly drawn) [I-41]	> 1000	–
CC(c1ccc(CNCCOCCOCCOCCCc2ccc3c(c2)n(C)c(=O)n3C2CCC(=O)NC2=O)cc1)n1cc(-c2cc(-c3ccccc3O)nnc2N)cn1 (stereo not drawn) [I-42, 3-(5-(1-(4-(1-(4-(3-amino-6-(2-hydroxyphenyl)pyridazin-4-yl)-1H-pyrazol-1-yl)ethyl)phenyl)-5,8,11-trioxa-2-azatetradecan-14-yl)-3-methyl-2-oxo-2,3-dihydro-1H-benzo[d]imidazol-1-yl)piperidine-2,6-dione]	> 1000	–
Nc1nnc(-c2ccccc2O)cc1N1C[C@H]2C[C@@H]1CN2c1cccc(Cn2cc(CCCCOc3cccc4c3C(=O)N(C3CCC(=O)NC3=O)C4=O)nn2)n1 (stereo partly drawn) [I-43]	> 1000	70 to 90
Cn1c(=O)n(C2CCC(=O)NC2=O)c2ccc(CCCCc3cn(Cc4cccc(N5C[C@H]6C[C@@H]5CN6/C=C/C(=O)c5ccccc5O)n4)nn3)cc21 (stereo partly drawn) [I-44]	> 1000	< 50
Cn1c(=O)n(C2CCC(=O)NC2=O)c2ccc(CCCCCc3cn(Cc4cccc(N5C[C@H]6C[C@@H]5CN6/C=C/C(=O)c5ccccc5O)n4)nn3)cc21 (stereo partly drawn) [I-45]	> 1000	< 50
Cn1c(=O)n(C2CCC(=O)NC2=O)c2ccc(CCCCCCc3cn(Cc4cccc(N5C[C@H]6C[C@@H]5CN6/C=C/C(=O)c5ccccc5O)n4)nn3)cc21 (stereo partly drawn) [I-46, 3-(5-(6-(1-((6-((1R,4R)-5-((E)-3-(2-hydroxyphenyl)-3-oxoprop-1-en-1-yl)-2,5-diazabicyclo[2.2.1]heptan-2-yl)pyridin-2-yl)methyl)-1H-1,2,3-triazol-4-yl)hexyl)-3-methyl-2-oxo-2,3-dihydro-1H-benzo[d]imidazol-1-yl)piperidine-2,6-dione]	> 1000	50 to 70
Cn1c(=O)n(C2CCC(=O)NC2=O)c2ccc(CCCCCCCc3cn(Cc4cccc(N5C[C@H]6C[C@@H]5CN6/C=C/C(=O)c5ccccc5O)n4)nn3)cc21 (stereo partly drawn) [I-47]	> 1000	< 50
Cn1c(=O)n(C2CCC(=O)NC2=O)c2ccc(CCCCCCCCc3cn(Cc4cccc(N5C[C@H]6C[C@@H]5CN6/C=C/C(=O)c5ccccc5O)n4)nn3)cc21 (stereo partly drawn) [I-48]	> 1000	< 50
Cn1c(=O)n(C2CCC(=O)NC2=O)c2cccc(CCCCc3cn(Cc4cccc(N5C[C@H]6C[C@@H]5CN6/C=C/C(=O)c5ccccc5O)n4)nn3)c21 (stereo partly drawn) [I-49]	100 to 500	70 to 90
Cn1c(=O)n(C2CCC(=O)NC2=O)c2cccc(CCCCCc3cn(Cc4cccc(N5C[C@H]6C[C@@H]5CN6/C=C/C(=O)c5ccccc5O)n4)nn3)c21 (stereo partly drawn) [I-50]	> 1000	< 50
Cn1c(=O)n(C2CCC(=O)NC2=O)c2cccc(CCCCCCc3cn(Cc4cccc(N5C[C@H]6C[C@@H]5CN6/C=C/C(=O)c5ccccc5O)n4)nn3)c21 (stereo partly drawn) [I-51]	> 1000	< 50
Cn1c(=O)n(C2CCC(=O)NC2=O)c2cccc(CCCCCCCc3cn(Cc4cccc(N5C[C@H]6C[C@@H]5CN6/C=C/C(=O)c5ccccc5O)n4)nn3)c21 (stereo partly drawn) [I-52]	> 1000	< 50
Cn1c(=O)n(C2CCC(=O)NC2=O)c2cccc(CCCCCCCCc3cn(Cc4cccc(N5C[C@H]6C[C@@H]5CN6/C=C/C(=O)c5ccccc5O)n4)nn3)c21 (stereo partly drawn) [I-53]	> 1000	< 50
O=C1CCC(n2c(=O)n(CCCCc3cn(Cc4cccc(N5C[C@H]6C[C@@H]5CN6/C=C/C(=O)c5ccccc5O)n4)nn3)c3ccccc32)C(=O)N1 (stereo partly drawn) [I-54]	> 1000	< 50
